# Where two headings read alike, the source gives them in different places.
# Key:
# [1] = target: CDK1/cyclin B (Homo sapiens (Human), UniProt P06493); assay: CDK1/cyclin B enzymatic activity assay (IMAP-FP); type: biochemical; settings: 100 nM Tamra Histone-H1 peptide, 20 μM ATP, 120 min at room temperature, read-out: Biochemical CDK1 enzyme IC50
# Excerpt: CDK1/Cyclin B Enzymatic Activity Assay
# A 384-well microtiter IMAP-FP™ (Molecular Devices Trade Mark Technology) endpoint assay was used for CDK1/cyclin B kinase activity measurements. The same assay was used for IC50 determination of small molecule inhibitors.
# [2] = tested on: phosphorylation of pRb at the Ser780 site in JeKo-1 mantle cell lymphoma cells; assay: CDK4 cellular assay: ELISA of pRb phosphorylation at Ser780 in JeKo-1 cells; type: cell-based
# [3] = target: CDK4/cyclin D1 (Homo sapiens (Human), UniProt P11802); assay: CDK4/cyclin D1 enzymatic activity assay (TR-FRET, phosphorylation of pRb at Ser780); type: biochemical; settings: 0.3 nM CDK4/cyclin D1, 150 nM biotin-pRb (773-924), 3 μM ATP, 60 min at 22° C.; read-out: Biochemical CDK4 enzyme IC50
# Outline: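 Phosphorylation at pRb Ser780, detected by TR-FRET, gave IC50s and kinetics. Enzyme: baculovirus/Sf21-expressed human CDK4/cyclin D1. ATP at 3 μM initiated the reaction; EDTA (pH 8.0) stopped it after 60 min at 22° C.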
# [4] = Homo sapiens, JeKo-1, JeKo-1 cells, p-pRb % inhibition adjusted with total pRb levels, read-out: Normalized cellular ppRb inhibition IC50
# [5] = Homo sapiens, JeKo-1, JeKo-1 cells, p-pRb Ser780 ELISA, non-normalized, read-out: Cellular ppRb inhibition IC50
# [6] = Homo sapiens, JeKo-1, read-out: Cellular ppRb inhibition IC50
# [7] = Homo sapiens, JeKo-1, read-out: Normalized cellular ppRb inhibition IC50
# [8] = Homo sapiens, JeKo-1 cells, p-pRb % inhibition adjusted with total pRb levels, read-out: Normalized cellular ppRb inhibition IC50
# [9] = Homo sapiens, JeKo-1 cells, p-pRb Ser780 ELISA, non-normalized, read-out: Cellular ppRb inhibition IC50
# Sequence of CDK4/cyclin D1 (P11802 whole entry): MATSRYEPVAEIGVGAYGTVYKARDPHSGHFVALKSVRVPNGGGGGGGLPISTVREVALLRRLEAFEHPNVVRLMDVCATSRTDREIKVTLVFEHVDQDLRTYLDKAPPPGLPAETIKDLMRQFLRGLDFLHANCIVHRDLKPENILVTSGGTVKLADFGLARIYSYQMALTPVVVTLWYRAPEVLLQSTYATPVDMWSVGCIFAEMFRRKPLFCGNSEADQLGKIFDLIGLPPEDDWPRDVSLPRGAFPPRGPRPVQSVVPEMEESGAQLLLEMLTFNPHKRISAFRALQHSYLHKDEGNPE
# Sequence of CDK4/cyclin D1 (P24385 whole entry partner): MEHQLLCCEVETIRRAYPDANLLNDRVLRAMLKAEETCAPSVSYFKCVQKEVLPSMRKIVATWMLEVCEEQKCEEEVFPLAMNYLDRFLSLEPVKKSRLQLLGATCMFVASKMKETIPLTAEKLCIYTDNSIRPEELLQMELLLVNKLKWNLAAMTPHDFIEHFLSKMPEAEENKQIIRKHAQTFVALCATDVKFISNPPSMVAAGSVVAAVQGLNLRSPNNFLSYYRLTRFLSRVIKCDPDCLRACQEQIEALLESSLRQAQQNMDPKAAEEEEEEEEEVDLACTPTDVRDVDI
# Sequence of CDK1/cyclin B (P06493 whole entry, species assumed): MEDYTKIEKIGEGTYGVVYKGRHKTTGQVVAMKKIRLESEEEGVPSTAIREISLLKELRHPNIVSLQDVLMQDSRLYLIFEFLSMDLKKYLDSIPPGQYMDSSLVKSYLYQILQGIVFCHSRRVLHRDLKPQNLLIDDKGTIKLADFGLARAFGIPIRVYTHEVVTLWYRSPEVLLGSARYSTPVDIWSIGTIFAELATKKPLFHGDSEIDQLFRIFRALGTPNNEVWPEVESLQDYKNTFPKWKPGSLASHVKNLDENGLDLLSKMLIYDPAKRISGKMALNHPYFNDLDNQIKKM
# Sequence of CDK1/cyclin B (P14635 whole entry partner, species assumed): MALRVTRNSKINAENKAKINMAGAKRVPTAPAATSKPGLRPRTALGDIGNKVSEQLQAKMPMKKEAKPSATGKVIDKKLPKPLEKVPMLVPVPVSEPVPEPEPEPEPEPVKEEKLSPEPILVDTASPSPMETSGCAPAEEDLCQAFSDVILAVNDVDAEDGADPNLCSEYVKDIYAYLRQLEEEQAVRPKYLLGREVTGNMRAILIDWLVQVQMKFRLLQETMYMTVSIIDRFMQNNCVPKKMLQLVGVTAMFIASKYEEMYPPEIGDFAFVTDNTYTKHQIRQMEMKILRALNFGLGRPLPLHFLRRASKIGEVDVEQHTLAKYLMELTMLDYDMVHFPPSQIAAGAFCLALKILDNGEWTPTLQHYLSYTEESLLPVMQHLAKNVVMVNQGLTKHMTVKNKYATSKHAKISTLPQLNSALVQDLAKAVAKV
Structure (SMILES),IC50 ([1]; […] CDK1/cyclin B),"IC50 [2, 4]","IC50 [2, 5]",IC50 [3],"IC50 ([2]; JeKo-1 cells, p-pRb % inhibition adjusted with total pRb levels, read-out: Normalized cellular ppRb inhibition IC50)","IC50 ([2]; JeKo-1 cells, p-pRb Ser780 ELISA, non-normalized, read-out: Cellular ppRb inhibition IC50)",IC50 ([1]; 0.25 nM CDK1/cyclin B),"IC50 [2, 6]","IC50 [2, 7]","IC50 [2, 8]","IC50 [2, 9]"
"CN1C[C@@H]2CC(=O)N(c3ccc(Nc4ncc5cc(C(=O)N(C)C)n(C6CCCCCC6)c5n4)nc3)C[C@@H]2C1 [Example 93, 7-cycloheptyl-N,N-dimethyl-2-(5-((3aS,7aR)-2-methyl-6-oxotetrahydro-1H-pyrrolo[3,4-c]pyridin-5(6H,7H,7aH)-yl)pyridin-2-ylamino)-7H-pyrrolo[2,3-d]pyrimidine-6-carboxamide]",> 15000 nM,20 nM,8 nM,< 5 nM,,,,,,,
"CN(C)C(=O)c1cc2cnc(Nc3ccc(N4CC5(CC6CCC(C5)N6)OC4=O)cn3)nc2n1C1CCCCC1 [Example 94, 7-cyclohexyl-N,N-dimethyl-2-(5-((1R,3r,5S)-2′-oxo-8-azaspiro[bicyclo[3.2.1]octane-3,5′-oxazolidine]-3′-yl)pyridin-2-ylamino)-7H-pyrrolo[2,3-d]pyrimidine-6-carboxamide]",> 15000 nM,34 to 206 nM,25 to 154 nM,41 to 44 nM,,,,,,,
"CN(C)C(=O)c1cc2cnc(Nc3ccc(N4C(=O)CN5CCC4CC5)cn3)nc2n1C1CCCC1 [Example 96, 7-cyclopentyl-N,N-dimethyl-2-(5-(3-oxo-1,4-diazabicyclo[3.2.2]nonan-4-yl)pyridin-2-ylamino)-7H-pyrrolo[2,3-d]pyrimidine-6-carboxamide]",10800 nM,,,15 to 28 nM,73 to 107 nM,31 to 39 nM,,,,,
"CN(C)C(=O)c1cc2cnc(Nc3ccc(N4C(=O)CN5CCC4CC5)cn3)nc2n1C1CCCCCC1 [Example 97, 7-cycloheptyl-N,N-dimethyl-2-(5-(3-oxo-1,4-diazabicyclo[3.2.2]nonan-4-yl)pyridin-2-ylamino)-7H-pyrrolo[2,3-d]pyrimidine-6-carboxamide]",,,,51 nM,,,> 15000 nM,66 nM,145 nM,,
"CN(C)C(=O)c1cc2cnc(Nc3ccc(N4CCN5CCCC5C4=O)cn3)nc2n1C1CCCCC1 (stereo not shown) [Example 98, 7-Cyclohexyl-2-[5-(1-oxo-hexahydro-pyrrolo[1,2-a]pyrazin-2-yl)-pyridin-2-ylamino]-7H-pyrrolo[2,3-d]pyrimidine-6-carboxylic acid dimethylamide]",> 15000 nM,,,16 to 98 nM,,,,136 to 266 nM,291 to 887 nM,,
"CN(C)C(=O)c1cc2cnc(Nc3ccc(N4CCN5CCCCC5C4=O)cn3)nc2n1C1CCCC1 (stereo not shown) [Example 99, 7-Cyclopentyl-2-[5-(1-oxo-octahydro-pyrido[1,2-a]pyrazin-2-yl)-pyridin-2-ylamino]-7H-pyrrolo[2,3-d]pyrimidine-6-carboxylic acid dimethylamide]",> 15000 nM,618 nM,463 nM,71 nM,,,,,,,
"CN(C)C(=O)c1cc2cnc(Nc3ccc(N4CCN5CCCCC5C4=O)cn3)nc2n1C1CCCCC1 (stereo not shown) [Example 100, 7-Cyclohexyl-2-[5-(1-oxo-octahydro-pyrido[1,2-a]pyrazin-2-yl)-pyridin-2-ylamino]-7H-pyrrolo[2,3-d]pyrimidine-6-carboxylic acid dimethylamide]",> 15000 nM,,,35 nM,,,,,,218 nM,188 nM
"CN(C)C(=O)c1cc2cnc(Nc3ccc(N4CC5(CC6CCC(C5)N6)OC4=O)cn3)nc2n1C1CCCC1 [Example 101, 7-cyclopentyl-N,N-dimethyl-2-(5-((1R,3r, 5S)-2′-oxo-8-azaspiro[bicyclo[3.2.1]octane-3,5′-oxazolidine]-3′-yl)pyridin-2-ylamino)-7H-pyrrolo[2,3-d]pyrimidine-6-carboxamide]",> 15000 nM,,,20 nM,,,,,,110 nM,58 nM
"CN(C)C(=O)c1cc2cnc(Nc3ccc(N4CC5(CC6CCC(C5)N6C)OC4=O)cn3)nc2n1C1CCCC1 [Example 102, 7-cyclopentyl-N,N-dimethyl-2-(5-((1R,3r,5S)-8-methyl-2′-oxo-8-azaspiro[bicyclo[3.2.1]octane-3,5′-oxazolidine]-3′-yl)pyridin-2-ylamino)-7H-pyrrolo[2,3-d]pyrimidine-6-carboxamide]",> 15000 nM,71 nM,39 nM,18 nM,,,,,,,
"CN(C)C(=O)c1cc2cnc(Nc3ccc(N4CC5(CCCNCC5)OC4=O)cn3)nc2n1C1CCCC1 (stereo not shown) [Example 103, 7-cyclopentyl-N,N-dimethyl-2-(5-(2-oxo-1-oxa-3,8-diazaspiro[4.6]undecan-3-yl)pyridin-2-ylamino)-7H-pyrrolo[2,3-d]pyrimidine-6-carboxamide]",> 15000 nM,,,17 nM,,,,,,64 to 169 nM,24 to 72 nM
"CN1CCCC2(CC1)CN(c1ccc(Nc3ncc4cc(C(=O)N(C)C)n(C5CCCC5)c4n3)nc1)C(=O)O2 (stereo not shown) [Example 104, 7-Cyclopentyl-2-[5-(8-methyl-2-oxo-1-oxa-3,8-diaza-spiro[4.6]undec-3-yl)-pyridin-2-ylamino]-7H-pyrrolo[2,3-d]pyrimidine-6-carboxylic acid dimethylamide]",> 15000 nM,,,20 nM,,,,,,64 nM,29 nM
"CN(C)C(=O)c1cc2cnc(Nc3ccc(N4C[C@@]5(CCCNCC5)OC4=O)cn3)nc2n1C1CCCC1 [Example 105, 7-Cyclopentyl-2-[5-((S)-2-oxo-1-oxa-3,8-diaza-spiro[4.6]undec-3-yl)-pyridin-2-ylamino]-7H-pyrrolo[2,3-d]pyrimidine-6-carboxylic acid dimethylamide]",> 15000 nM,,,12 nM,,,,,,100 nM,61 nM
"CN(C)C(=O)c1cc2cnc(Nc3ccc(N4C[C@]5(CCCNCC5)OC4=O)cn3)nc2n1C1CCCC1 [Example 106, 7-Cyclopentyl-2-[5-((R)-2-oxo-1-oxa-3,8-diaza-spiro[4.6]undec-3-yl)-pyridin-2-ylamino]-7H-pyrrolo[2,3-d]pyrimidine-6-carboxylic acid dimethylamide]",> 15000 nM,,,15 nM,,,,,,114 nM,70 nM
"CN(C)C(=O)c1cc2cnc(Nc3ccc(N4CC5(CCCNC5)OC4=O)cn3)nc2n1C1CCCC1 (stereo not shown) [Example 107, 7-cyclopentyl-N,N-dimethyl-2-(5-(2-oxo-1-oxa-3,7-diazaspiro[4.5]decan-3-yl)pyridin-2-ylamino)-7H-pyrrolo[2,3-d]pyrimidine-6-carboxamide]",> 15000 nM,,,9 nM,,,,,,37 to 114 nM,13 to 49 nM
"CN1CCCC2(C1)CN(c1ccc(Nc3ncc4cc(C(=O)N(C)C)n(C5CCCC5)c4n3)nc1)C(=O)O2 (stereo not shown) [Example 108, 7-cyclopentyl-N,N-dimethyl-2-(5-(7-methyl-2-oxo-1-oxa-3,7-diazaspiro[4.5]decan-3-yl)pyridin-2-ylamino)-7H-pyrrolo[2,3-d]pyrimidine-6-carboxamide]",> 15000 nM,69 nM,61 nM,13 nM,,,,,,,
"CN(C)C(=O)c1cc2cnc(Nc3ccc(N4C[C@@]5(CCCNC5)OC4=O)cn3)nc2n1C1CCCC1 [Example 109, 7-Cyclopentyl-2-[5-((S)-2-oxo-1-oxa-3,7-diaza-spiro[4.5]dec-3-yl)-pyridin-2-ylamino]-7H-pyrrolo[2,3-d]pyrimidine-6-carboxylic acid dimethylamide]",> 15000 nM,,,12 nM,,,,,,75 nM,48 nM
"CN(C)C(=O)c1cc2cnc(Nc3ccc(N4C[C@]5(CCCNC5)OC4=O)cn3)nc2n1C1CCCC1 [Example 110, 7-Cyclopentyl-2-[5-((R)-2-oxo-1-oxa-3,7-diaza-spiro[4.5]dec-3-yl)-pyridin-2-ylamino]-7H-pyrrolo[2,3-d]pyrimidine-6-carboxylic acid dimethylamide]",> 15000 nM,,,8 nM,,,,,,62 nM,41 nM
"CN(C)C(=O)c1cc2cnc(Nc3ccc(N4CC5CC4CN5)cn3)nc2n1C1CCCC1 (stereo not shown) [Example 111, 7-Cyclopentyl-2-[5-(2,5-diaza-bicyclo[2.2.1]hept-2-yl)-pyridin-2-ylamino]-7H-pyrrolo[2,3-d]pyrimidine-6-carboxylic acid dimethylamide]",9170 nM,,,41 nM,,,,,,452 nM,371 nM
"CN(C)C(=O)c1cc2cnc(Nc3ccc(N4CC5CCC(C4)N5)cn3)nc2n1C1CCCC1 [Example 112, 7-Cyclopentyl-2-[5-(3,8-diaza-bicyclo[3.2.1]oct-3-yl)pyridin-2-ylamino]-7H-pyrrolo[2,3-d]pyrimidine-6-carboxylic acid dimethylamide]",> 15000 nM,,,11 to 34 nM,,,,,,231 nM,92 nM

# Source: US8957074B2 (Novartis AG, priority 2010, dated 2015)
